This passage reports chromatographic logP results from patent US20020006958A1, “Substituted aminosalicylic acid amides with fungicidal effect and intermediate products for production thereof” (priority 1997, published 2002).

The data set can be described thus: HPLC logP determination. The class given is physicochemical. Conditions: stated in the preparation examples.
Regarding `O=CNc1cccc(C(=O)Nc2ccc(Oc3ncnc(Oc4ccccc4)c3F)cc2)c1O` [Example 1, N-[4-(5-fluoro-6-phenoxy-pyrimidin-4-yloxy)-phenyl]-3-formyl-amino-2-hydroxy-benzamide], the chromatographic logP (as a rule, lipophilicity estimated from chromatographic retention) amounted to 3.31.

For the compound `O=C(Nc1ccc(Oc2ncnc(Oc3ccccc3)c2F)cc1)c1cccc([N+](=O)[O-])c1OCc1ccccc1` [Example V-1, 2-benzyloxy-N-[4-(5-fluoro-6-phenoxy-pyrimidin-4-yloxy)-phenyl]-3-nitro-benzamide], the chromatographic logP was determined as 4.56.

Regarding `Nc1ccc(Oc2cc(Oc3ccccc3Cl)ncn2)cc1` [VII-a-1, 4-(4-aminophenoxy)-6-(2-chlorophenoxy)-pyrimidine], the chromatographic logP was 1.96.

The compound `Nc1ccc(Oc2cc(Cl)ncn2)cc1` [XI-1, 4-(4-aminophenoxy)-6-chloro-pyrimidine] came in with a chromatographic logP of 0.65.
